In the NIST ThermoML archive (doi:10.1016/j.jct.2008.08.011):
± gives the expanded uncertainty stated by the source.

Assay: osmotic coefficient (dimensionless); mn = molality of the nth substance listed, in mol/kg
Details: 101 kPa, Liquid, Knauer K-7000 vapour pressure osmometer

SMILES: CCCCn1cc[n+](C)c1.[Cl-] [1-butyl-3-methylimidazolium chloride] + CCO
- osmotic coefficient (313.15 K, m1 = 0.1278): 1.02 ± 0.001
- osmotic coefficient (313.15 K, m1 = 0.3749): 0.887 ± 0.006
- osmotic coefficient (313.15 K, m1 = 0.6198): 0.802 ± 0.01
- osmotic coefficient (313.15 K, m1 = 0.7747): 0.783 ± 0.011
- osmotic coefficient (313.15 K, m1 = 1.096): 0.742 ± 0.013
- osmotic coefficient (313.15 K, m1 = 1.437): 0.717 ± 0.014
- osmotic coefficient (313.15 K, m1 = 1.904): 0.685 ± 0.016
- osmotic coefficient (313.15 K, m1 = 2.318): 0.68 ± 0.016
- osmotic coefficient (313.15 K, m1 = 2.688): 0.657 ± 0.017
- osmotic coefficient (313.15 K, m1 = 3.018): 0.653 ± 0.017
- osmotic coefficient (313.15 K, m1 = 3.348): 0.66 ± 0.017
- osmotic coefficient (313.15 K, m1 = 3.521): 0.66 ± 0.017
- osmotic coefficient (333.15 K, m1 = 0.1278): 0.782 ± 0.011
- osmotic coefficient (333.15 K, m1 = 0.3749): 0.709 ± 0.015
- osmotic coefficient (333.15 K, m1 = 0.6198): 0.666 ± 0.017
- osmotic coefficient (333.15 K, m1 = 0.7747): 0.647 ± 0.018
- osmotic coefficient (333.15 K, m1 = 1.096): 0.63 ± 0.019
- osmotic coefficient (333.15 K, m1 = 1.437): 0.613 ± 0.019
- osmotic coefficient (333.15 K, m1 = 1.904): 0.589 ± 0.021
- osmotic coefficient (333.15 K, m1 = 2.318): 0.576 ± 0.021
- osmotic coefficient (333.15 K, m1 = 2.688): 0.566 ± 0.022
- osmotic coefficient (333.15 K, m1 = 3.018): 0.553 ± 0.022
- osmotic coefficient (333.15 K, m1 = 3.348): 0.55 ± 0.023
- osmotic coefficient (333.15 K, m1 = 3.521): 0.548 ± 0.023

SMILES: CCn1cc[n+](C)c1.[Cl-] [1-ethyl-3-methylimidazolium chloride] + O
- osmotic coefficient (313.15 K, m1 = 0.1847): 0.97 ± 0.002
- osmotic coefficient (313.15 K, m1 = 0.3033): 0.949 ± 0.003
- osmotic coefficient (313.15 K, m1 = 0.3896): 0.941 ± 0.003
- osmotic coefficient (313.15 K, m1 = 0.5094): 0.923 ± 0.004
- osmotic coefficient (313.15 K, m1 = 0.7105): 0.895 ± 0.005
- osmotic coefficient (313.15 K, m1 = 1.047): 0.861 ± 0.007
- osmotic coefficient (313.15 K, m1 = 1.294): 0.842 ± 0.008
- osmotic coefficient (313.15 K, m1 = 1.678): 0.835 ± 0.008
- osmotic coefficient (313.15 K, m1 = 2.113): 0.831 ± 0.008
- osmotic coefficient (313.15 K, m1 = 2.49): 0.829 ± 0.009
- osmotic coefficient (313.15 K, m1 = 2.947): 0.844 ± 0.008
- osmotic coefficient (313.15 K, m1 = 3.237): 0.852 ± 0.007
- osmotic coefficient (313.15 K, m1 = 3.722): 0.885 ± 0.006
- osmotic coefficient (313.15 K, m1 = 4.113): 0.921 ± 0.004
- osmotic coefficient (333.15 K, m1 = 0.1847): 0.936 ± 0.003
- osmotic coefficient (333.15 K, m1 = 0.3033): 0.918 ± 0.004
- osmotic coefficient (333.15 K, m1 = 0.3896): 0.896 ± 0.005
- osmotic coefficient (333.15 K, m1 = 0.5094): 0.865 ± 0.007
- osmotic coefficient (333.15 K, m1 = 0.7105): 0.847 ± 0.008
- osmotic coefficient (333.15 K, m1 = 1.047): 0.812 ± 0.009
- osmotic coefficient (333.15 K, m1 = 1.294): 0.801 ± 0.01
- osmotic coefficient (333.15 K, m1 = 1.678): 0.79 ± 0.011
- osmotic coefficient (333.15 K, m1 = 2.113): 0.784 ± 0.011
- osmotic coefficient (333.15 K, m1 = 2.49): 0.788 ± 0.011
- osmotic coefficient (333.15 K, m1 = 2.947): 0.797 ± 0.01
- osmotic coefficient (333.15 K, m1 = 3.237): 0.809 ± 0.01
- osmotic coefficient (333.15 K, m1 = 3.722): 0.831 ± 0.008
- osmotic coefficient (333.15 K, m1 = 4.113): 0.855 ± 0.007

SMILES: CCOS(=O)(=O)[O-].CC[n+]1cccc(C)c1 [1-ethyl-3-methylpyridinium ethylsulfate] + O
- osmotic coefficient (313.15 K, m1 = 0.1419): 0.956 ± 0.002
- osmotic coefficient (313.15 K, m1 = 0.2108): 0.927 ± 0.004
- osmotic coefficient (313.15 K, m1 = 0.3168): 0.897 ± 0.005
- osmotic coefficient (313.15 K, m1 = 0.3829): 0.873 ± 0.006
- osmotic coefficient (313.15 K, m1 = 0.5036): 0.846 ± 0.008
- osmotic coefficient (313.15 K, m1 = 0.6837): 0.828 ± 0.009
- osmotic coefficient (313.15 K, m1 = 1.034): 0.813 ± 0.009
- osmotic coefficient (313.15 K, m1 = 1.326): 0.808 ± 0.01
- osmotic coefficient (313.15 K, m1 = 1.726): 0.807 ± 0.01
- osmotic coefficient (313.15 K, m1 = 2.11): 0.813 ± 0.009
- osmotic coefficient (313.15 K, m1 = 2.501): 0.826 ± 0.009
- osmotic coefficient (313.15 K, m1 = 2.892): 0.843 ± 0.008
- osmotic coefficient (313.15 K, m1 = 3.303): 0.859 ± 0.007
- osmotic coefficient (333.15 K, m1 = 0.1419): 0.948 ± 0.003
- osmotic coefficient (333.15 K, m1 = 0.2108): 0.925 ± 0.004
- osmotic coefficient (333.15 K, m1 = 0.3168): 0.887 ± 0.006
- osmotic coefficient (333.15 K, m1 = 0.3829): 0.864 ± 0.007
- osmotic coefficient (333.15 K, m1 = 0.5036): 0.836 ± 0.008
- osmotic coefficient (333.15 K, m1 = 0.6837): 0.811 ± 0.009
- osmotic coefficient (333.15 K, m1 = 1.034): 0.784 ± 0.011
- osmotic coefficient (333.15 K, m1 = 1.326): 0.782 ± 0.011
- osmotic coefficient (333.15 K, m1 = 1.726): 0.782 ± 0.011
- osmotic coefficient (333.15 K, m1 = 2.11): 0.792 ± 0.01
- osmotic coefficient (333.15 K, m1 = 2.501): 0.802 ± 0.01
- osmotic coefficient (333.15 K, m1 = 2.892): 0.809 ± 0.01
- osmotic coefficient (333.15 K, m1 = 3.303): 0.817 ± 0.009

SMILES: CCCCCCn1cc[n+](C)c1.[Cl-] [1-hexyl-3-methylimidazolium chloride] + CCO
- osmotic coefficient (313.15 K, m1 = 0.0583): 0.955 ± 0.002
- osmotic coefficient (313.15 K, m1 = 0.0975): 0.92 ± 0.004
- osmotic coefficient (313.15 K, m1 = 0.4274): 0.735 ± 0.013
- osmotic coefficient (313.15 K, m1 = 0.6999): 0.695 ± 0.015
- osmotic coefficient (313.15 K, m1 = 1.014): 0.677 ± 0.016
- osmotic coefficient (313.15 K, m1 = 1.354): 0.662 ± 0.017
- osmotic coefficient (313.15 K, m1 = 1.597): 0.659 ± 0.017
- osmotic coefficient (313.15 K, m1 = 1.924): 0.652 ± 0.017
- osmotic coefficient (313.15 K, m1 = 2.211): 0.648 ± 0.018
- osmotic coefficient (313.15 K, m1 = 2.579): 0.636 ± 0.018
- osmotic coefficient (313.15 K, m1 = 2.859): 0.635 ± 0.018
- osmotic coefficient (313.15 K, m1 = 3.272): 0.628 ± 0.019
- osmotic coefficient (333.15 K, m1 = 0.0583): 0.742 ± 0.013
- osmotic coefficient (333.15 K, m1 = 0.0975): 0.714 ± 0.014
- osmotic coefficient (333.15 K, m1 = 0.4274): 0.608 ± 0.02
- osmotic coefficient (333.15 K, m1 = 0.6999): 0.584 ± 0.021
- osmotic coefficient (333.15 K, m1 = 1.014): 0.568 ± 0.022
- osmotic coefficient (333.15 K, m1 = 1.354): 0.561 ± 0.022
- osmotic coefficient (333.15 K, m1 = 1.597): 0.558 ± 0.022
- osmotic coefficient (333.15 K, m1 = 1.924): 0.551 ± 0.022
- osmotic coefficient (333.15 K, m1 = 2.211): 0.553 ± 0.022
- osmotic coefficient (333.15 K, m1 = 2.579): 0.544 ± 0.023
- osmotic coefficient (333.15 K, m1 = 2.859): 0.544 ± 0.023
- osmotic coefficient (333.15 K, m1 = 3.272): 0.535 ± 0.023
